In PubChem BioAssay AID332 (DTP/NCI, 2004):
Where “and” joins values, the source holds several entries; their conditions need not be identical. Equal values may be shown once. Records with an inconclusive call do not appear.

Test system: mice, ADJ-PC-20 plasma cell tumor sc, T/C %
Assay: NCI In Vivo Anticancer Drug Screen. Data for tumor model ADJ-PC-20 Plasma Cell (subcutaneous) in unknown mice
Settings: endpoint: mean tumor weight, higher = larger tumour
Experimental: The antitumor activity of compounds was measured in mice bearing transplantable tumors. Survival or tumor size were measured and the results are expressed as the measurement made in the treated group (T) divided by the measurement made in the vehicle treated control group (C). The tumor model used in this assay is ADJ-PC-20 Plasma Cell (subcutaneous) in unknown mice

[1] = dose: 12.5 mg/kg/injection, schedule: Q01DX010 (ip), vehicle: carboxymethylcellulose (CMC)
[2] = dose: 25.0 mg/kg/injection, schedule: Q01DX010 (ip), vehicle: carboxymethylcellulose (CMC)
[3] = dose: 50.0 mg/kg/injection, schedule: Q01DX010 (ip), vehicle: carboxymethylcellulose (CMC)
[4] = dose: 100.0 mg/kg/injection, schedule: Q01DX010 (ip), vehicle: carboxymethylcellulose (CMC)
[5] = dose: 6.25 mg/kg/injection, schedule: Q01DX010 (ip), vehicle: carboxymethylcellulose (CMC)
[6] = dose: 6.25 mg/kg/injection, schedule: Q01DX010 (ip), vehicle: saline
[7] = dose: 250.0 mg/kg/injection, schedule: Q01DX010 (ip), vehicle: carboxymethylcellulose (CMC)
[8] = dose: 10.0 mg/kg/injection, schedule: Q01DX010 (ip), vehicle: carboxymethylcellulose (CMC)
[9] = dose: 0.63 mg/kg/injection, schedule: Q01DX010 (ip), vehicle: saline
[10] = dose: 1.25 mg/kg/injection, schedule: Q01DX010 (ip), vehicle: saline

NC(=O)N(CCCl)N=O
T/C (dose: 1.75 mg/kg/injection, schedule: Q01DX010 (ip), vehicle: carboxymethylcellulose (CMC)): 93 % of control
T/C (dose: 3.5 mg/kg/injection, schedule: Q01DX010 (ip), vehicle: carboxymethylcellulose (CMC)): 105 % of control
T/C (dose: 7.0 mg/kg/injection, schedule: Q01DX010 (ip), vehicle: carboxymethylcellulose (CMC)): 102 % of control

CS(=O)(=O)OCCCl
T/C [1]: 120 % of control
T/C [2]: 114 % of control
T/C [3]: 76 % of control
T/C [4]: 124 % of control

CCCNc1ncnc2[nH]ncc12
T/C (dose: 5.0 mg/kg/injection, schedule: Q01DX010 (ip), vehicle: water): 97 % of control
T/C (dose: 10.0 mg/kg/injection, schedule: Q01DX010 (ip), vehicle: water): 86 % of control
T/C (dose: 20.0 mg/kg/injection, schedule: Q01DX010 (ip), vehicle: water): 95 % of control

C[C@]12C=CC(=O)C=C1CC[C@@H]1[C@@H]2C(=O)C[C@@]2(C)[C@H]1CC[C@]2(O)C(=O)CO
T/C (dose: 6.3 mg/kg/injection, schedule: Q01DX010 (sc), vehicle: steriod suspending solution): 107 % of control
T/C (dose: 12.5 mg/kg/injection, schedule: Q01DX010 (sc), vehicle: steriod suspending solution): 51 % of control
T/C (dose: 100.0 mg/kg/injection, schedule: Q01DX010 (sc), vehicle: steriod suspending solution): 14 % of control

CN(Cc1cnc2nc(N)nc(N)c2n1)c1c(Cl)cc(C(=O)NC(CCC(=O)O)C(=O)O)cc1Cl (stereo unspecified)
T/C [5]: 93 % of control
T/C [1]: 112 % of control
T/C [2]: 79 % of control and 97 % of control
T/C [3]: 71 % of control

C[C@@H]1C[C@@H]([C@H](O)CC2CC(=O)NC(=O)C2)C(=O)[C@@H](C)C1
T/C (dose: 1.6 mg/kg/injection, schedule: Q01DX010 (ip), vehicle: water): 91 % of control
T/C (dose: 3.1 mg/kg/injection, schedule: Q01DX010 (ip), vehicle: water): 84 % of control
T/C [6]: 50 % of control
T/C (dose: 6.3 mg/kg/injection, schedule: Q01DX010 (ip), vehicle: water): 78 % of control

OCC1OC(n2cnc3c(Cl)ncnc32)C(O)C1O (stereo unspecified)
T/C (dose: 125.0 mg/kg/injection, schedule: Q01DX010 (ip), vehicle: carboxymethylcellulose (CMC)): 100 % of control
T/C [7]: 107 % of control
T/C (dose: 500.0 mg/kg/injection, schedule: Q01DX010 (ip), vehicle: carboxymethylcellulose (CMC)): 93 % of control
T/C (dose: 1000.0 mg/kg/injection, schedule: Q01DX010 (ip), vehicle: carboxymethylcellulose (CMC)): 35 % of control

C[C@H](N)C(=O)N[C@@H]1[C@H]2C(=C(O)C[C@@H](O)[C@@H]2O)C(=O)O[C@@H]1C
T/C (dose: 250.0 mg/kg/injection, schedule: Q01DX010 (ip), vehicle: saline): 48 % of control
T/C (dose: 500.0 mg/kg/injection, schedule: Q01DX010 (ip), vehicle: saline): 58 % of control

CS(=O)(=O)OCC(O)C(O)COS(C)(=O)=O (stereo unspecified)
T/C (dose: 99.0 mg/kg/injection, schedule: Q01DX010 (ip), vehicle: saline): 78 % of control
T/C (dose: 188.0 mg/kg/injection, schedule: Q01DX010 (ip), vehicle: saline): 53 % of control
T/C (dose: 375.0 mg/kg/injection, schedule: Q01DX010 (ip), vehicle: saline): 58 % of control
T/C (dose: 750.0 mg/kg/injection, schedule: Q01DX010 (ip), vehicle: saline): 7 % of control

CC(=O)OCC1OC(n2ncc(=O)[nH]c2=O)C(OC(C)=O)C1OC(C)=O (stereo unspecified)
T/C (dose: 125.0 mg/kg/injection, schedule: Q01DX010 (ip), vehicle: other): 55 % of control
T/C (dose: 250.0 mg/kg/injection, schedule: Q01DX010 (ip), vehicle: other): 58 % of control
T/C (dose: 500.0 mg/kg/injection, schedule: Q01DX010 (ip), vehicle: other): 48 % of control

Clc1ccc(C(c2ccccc2Cl)C(Cl)Cl)cc1 (stereo unspecified)
T/C (dose: 25.0 mg/kg/injection, schedule: Q01DX010 (sc), vehicle: steriod suspending solution): 66 % of control
T/C (dose: 50.0 mg/kg/injection, schedule: Q01DX010 (sc), vehicle: steriod suspending solution): 60 % of control
T/C (dose: 200.0 mg/kg/injection, schedule: Q01DX010 (sc), vehicle: steriod suspending solution): 86 % of control and 100 % of control and 109 % of control
T/C (dose: 400.0 mg/kg/injection, schedule: Q01DX010 (sc), vehicle: steriod suspending solution): 92 % of control
T/C (dose: 800.0 mg/kg/injection, schedule: Q01DX010 (sc), vehicle: steriod suspending solution): 73 % of control

N#[N+]c1cnc([O-])[nH]c1=O
T/C (dose: 5.0 mg/kg/injection, schedule: Q01DX010 (ip), vehicle: carboxymethylcellulose (CMC)): 99 % of control
T/C [8]: 90 % of control

O=P1(N(CCCl)CCCl)NCCCO1 (stereo unspecified)
T/C (dose: 3.2 mg/kg/injection, schedule: Q01DX010 (ip), vehicle: saline): 21 % of control
T/C [6]: 7 % of control

Nc1ncnc2[nH]ncc12
T/C [5]: 108 % of control
T/C [1]: 87 % of control
T/C [2]: 22 % of control

C[C@@H]1C[C@H]2CC[C@H](O2)[C@H](C)C(=O)O[C@@H](C)C[C@@H]2CC[C@@H](O2)[C@@H](C)C(=O)O[C@H](C)C[C@H]2CC[C@H](O2)[C@H](C)C(=O)O[C@@H](C)C[C@@H]2CC[C@@H](O2)[C@@H](C)C(=O)O1
T/C [3]: 110 % of control
T/C [4]: 120 % of control
T/C (dose: 200.0 mg/kg/injection, schedule: Q01DX010 (ip), vehicle: carboxymethylcellulose (CMC)): 99 % of control

C[N+](C)(C)c1ncnc2nc[nH]c12
T/C (dose: 0.8 mg/kg/injection, schedule: Q01DX010 (ip), vehicle: carboxymethylcellulose (CMC)): 70 % of control
T/C (dose: 1.6 mg/kg/injection, schedule: Q01DX010 (ip), vehicle: carboxymethylcellulose (CMC)): 59 % of control
T/C (dose: 3.1 mg/kg/injection, schedule: Q01DX010 (ip), vehicle: carboxymethylcellulose (CMC)): 69 % of control
T/C (dose: 6.3 mg/kg/injection, schedule: Q01DX010 (ip), vehicle: carboxymethylcellulose (CMC)): 70 % of control
T/C [1]: 36 % of control
T/C [2]: 52 % of control
T/C [3]: 6 % of control

CN(C)c1nc(N(C)C)nc(N(C)C)n1
T/C (dose: 62.5 mg/kg/injection, schedule: Q01DX010 (ip), vehicle: carboxymethylcellulose (CMC)): 97 % of control
T/C [7]: 58 % of control

N=C(N)c1ccc(Nc2ccc(C(=N)N)cc2)cc1
T/C (dose: 6.25 mg/kg/injection, schedule: Q01DX010 (ip), vehicle: methylcellulose (MC)): 116 % of control
T/C (dose: 12.5 mg/kg/injection, schedule: Q01DX010 (ip), vehicle: methylcellulose (MC)): 105 % of control

NC(=O)c1ccc(N)nc1
T/C [9]: 69 % of control
T/C [10]: 52 % of control
T/C (dose: 1.25 mg/kg/injection, schedule: Q01DX010 (ip), vehicle: water): 35 % of control
T/C (dose: 2.5 mg/kg/injection, schedule: Q01DX010 (ip), vehicle: water): 18 % of control

COc1cc2c(c(OC)c1OC)-c1ccc(OC)c(=O)cc1[C@@H](NC(C)=O)CC2
T/C (dose: 8.0 micrograms/kg/injection, schedule: Q01DX010 (ip), vehicle: saline): 99 % of control
T/C (dose: 16.0 micrograms/kg/injection, schedule: Q01DX010 (ip), vehicle: saline): 114 % of control
T/C (dose: 31.0 micrograms/kg/injection, schedule: Q01DX010 (ip), vehicle: saline): 105 % of control

S=P(N1CC1)(N1CC1)N1CC1
T/C [9]: 57 % of control
T/C [10]: 2 % of control

Nc1nc(SCc2ccccc2)c2[nH]cnc2n1
T/C (dose: 0.3 mg/kg/injection, schedule: Q01DX010 (ip), vehicle: carboxymethylcellulose (CMC)): 94 % of control
T/C (dose: 1.2 mg/kg/injection, schedule: Q01DX010 (ip), vehicle: carboxymethylcellulose (CMC)): 81 % of control
T/C (dose: 2.4 mg/kg/injection, schedule: Q01DX010 (ip), vehicle: carboxymethylcellulose (CMC)): 119 % of control
T/C (dose: 4.7 mg/kg/injection, schedule: Q01DX010 (ip), vehicle: carboxymethylcellulose (CMC)): 9 % of control

N=[N+]=CC(=O)OCC(N)C(=O)O (stereo unspecified)
T/C [10]: 120 % of control
T/C (dose: 5.0 mg/kg/injection, schedule: Q01DX010 (ip), vehicle: saline): 93 % of control

COC(=O)c1nc(-c2ccc3c(n2)C(=O)C(N)=C(OC)C3=O)c(N)c(-c2ccc(OC)c(OC)c2O)c1C
T/C (dose: 0.35 mg/kg/injection, schedule: Q01DX010 (ip), vehicle: other): 71 % of control
T/C (dose: 0.65 mg/kg/injection, schedule: Q01DX010 (ip), vehicle: other): 60 % of control
T/C (dose: 1.08 mg/kg/injection, schedule: Q01DX010 (ip), vehicle: other): 32 % of control
T/C (dose: 1.8 mg/kg/injection, schedule: Q01DX010 (ip), vehicle: other): 4 % of control

N=C(N)SCc1c2ccccc2c(CSC(=N)N)c2ccccc12
T/C [8]: 119 % of control
T/C (dose: 20.0 mg/kg/injection, schedule: Q01DX010 (ip), vehicle: carboxymethylcellulose (CMC)): 55 % of control
